Read-outs that look alike come from different tables or passages of the source. Where only a bound is given, the exact number is not on record here.

The subject of data set [1] is Alga X. The procedure: The mother culture is generally about one week old and has a culture density of about 2×10̂6.
Two experiments were run using 0, 8, 16, 32, and 64 mM NaCl salt concentrations in the Alga X culture medium. Alga cells were collected for lipid analysis at 0, 3, 6, and 9 days for each salt concentration.
The starting culture densities were 5.00E+03 cells/ml.
The starting culture densities were 1.00E+05 cells/ml.
Alga X cell cultures were subjected to agitation between 0 and 100 rpm.
A volume of about 37.6 ml of original stock was added to each starting flask, with the balance being medium to bring the cell cultures to a concentration of about 1.00E+06.
The original stock culture was maintained in CORE1 (distilled water based medium), plus SEM, with a concentration of about 3.19E+06 cells/ml. Volumes of 34.5 ml of original stock were added to each starting flask, with the balance being medium to bring the cell cultures to a concentration of about 1.00E+05.
The experimental AMPSO culture was maintained in a medium of Clear (human waste water), SEM, and 8 mM AMPSO pH buffer. The AMPSO plus NaHCO3 culture was maintained in a medium of Clear (human waste water), SEM, 8 mM AMPSO pH buffer, and 2 mM NaHCO3.

Data set [2] has as its system lipid bodies in algal cells. The experiment in a line: BODIPY 505/515 vital staining of lipid bodies in live algal cells (fluorescence microscopy, cell sorter). Format: cell-based, Alga X. The source says:
When added to a culture of algal cells, 1-10 micro-liters of BODIPY 505/515 stains intracellular lipid bodies within minutes. (Preparation of a BODIPY 505/515 stock solution is described below in EXAMPLE 30.) BODIPY 505/515 accumulates in lipidic compartments by a diffusion-trap mechanism. The dye has a high oil/water partition coefficient, which allows it to cross cell membranes and organelle membranes easily. When viewed under a fluorescent microscope, the background fluorescence of BODIPY 505/515 in the bath solution is slightly visible. Despite the slight background fluorescence, lipid bodies within live algal cells are intensely labeled and can be easily seen using fluorescein-type optics or confocal microscopy (see FIG. 8). […] This fluorescence arises from endogenous carotenoid and chlorophyll molecules located within the chloroplasts.
Fluorescently labeled cells with large lipid bodies can be isolated using the fluorescent cell sorter and used to successfully seed new algal cultures. Fluorescently labeled cells have a signal/noise ratio of 50-200 above background fluorescence, depending on the BODIPY 505/515 dye concentration used. […] BODIPY 505/515 can be used to characterize the diurnal rhythm of lipid body size within algal cells or decline in lipid quantity per cell as a culture moves from one life history phase to another. […]

In data set [3] the test system is Single-cell and filamentous species of algae. The experiment in a line: Algal growth in the continuous presence of the dye. The format is cell-based. To be noted: micromolar concentrations, for days (data not shown).
In data set [4] the test system is Alga X. Nature of the data set: Fatty acid content and fatty acid profile of Alga X cells grown in test media (GC/MS, FAME ionization detection). Format: cell-based, Chrysochromulina sp.

With `O=P(O)(O)OC(CO)CO` [BGlycerolphosphate, beta-glycerophosphate], the cells/mL is 6.98E+05 cells/mL with Alga X [1] (B-glycerolphosphate 6.45 uM (control amount), day 2); 1.57E+06 cells/mL in the data set on Alga X [1] (B-glycerolphosphate 6.45 uM (control amount), day 3); 2.75E+06 cells/mL in the data set with Alga X [1] (B-glycerolphosphate 6.45 uM (control amount), day 4); 3.54E+06 cells/mL with Alga X [1] (B-glycerolphosphate 6.45 uM (control amount), day 6); 4.10E+06 cells/mL in the data set on Alga X [1] (B-glycerolphosphate 6.45 uM (control amount), day 8); 4.53E+06 cells/mL with Alga X [1] (B-glycerolphosphate 6.45 uM (control amount), day 9).
`CC1=CC(C)=[N+]2C1=Cc1c(C)cc(C)n1[B-]2(F)F` [BODIPY 505/515, 4,4-difluoro-1,3,5,7-tetramethyl-4-bora-3a,4a-diaza-s-indacene]: in data set [2] (1 micro-molar BODIPY 505/515, 0.05% DMSO), the “time after dye addition until fluorescently-labeled lipid bodies are visible” value is at most 5 min. Further, in data set [2] (depending on dye concentration), the “signal/noise ratio of labeled cells above background fluorescence” value is 50-200. Also, the “growth of algae in continuous presence of the dye” value in data set [3] was “continue to grow well”.
As to `O=P([O-])(O)O.[K+]` [KH2PO4], the fatty acid productivity result in the data set with Alga X [4] (increasing KH2PO4, by day 6) is given as “increases slightly”.
With `[Cl-].[Na+]` [NaCl], in the data set on Alga X [1], the “level of NaCl at which Alga X exhibits maximum growth” value was 8.0 mM and the “survival of Alga X cells” value is given as “did not survive”. Further, the cell growth result with Alga X [1] (32 mM salt content) is on record as “depressed”.
In the case of `CC(=O)O` [acetate], the cells/mL in the data set on Alga X [1] (acetate 100 uM, day 0) was 1.0E+05 cells/mL; in the data set on Alga X [1] (acetate 100 uM, day 3) it was 1.54E+06 cells/mL; with Alga X [1] (acetate 100 uM, day 6), 3.27E+06 cells/mL; in the data set with Alga X [1] (acetate 100 uM, day 9), 4.87E+06 cells/mL; with Alga X [1] (acetate 200 uM, day 0), 1.0E+05 cells/mL; in the data set with Alga X [1] (acetate 200 uM, day 3) it was 1.69E+06 cells/mL. Besides, the cells/mL is 4.02E+06 cells/mL in the data set on Alga X [1] (acetate 200 uM, day 6); 5.02E+06 cells/mL in the data set with Alga X [1] (acetate 200 uM, day 9); 1.0E+05 cells/mL in the data set on Alga X [1] (acetate 400 uM, day 0); 1.67E+06 cells/mL in the data set with Alga X [1] (acetate 400 uM, day 3); 4.44E+06 cells/mL with Alga X [1] (acetate 400 uM, day 6); 4.70E+06 cells/mL with Alga X [1] (acetate 400 uM, day 9).
Consider `O=C([O-])O.[Na+]` [sodium bicarbonate], for which, in the data set on Alga X [1] (2 mM, 4 mM or 6 mM, with AMPSO pH buffer), the cell culture growth result is “further enhances cell culture growth”.
Consider nitrogen, for which, in the data set with Alga X [4] (increased nitrogen in the media), the lipid per cell entry is on record as “little affected”.

These data come from patent US20110207820A1, “NOVEL CHRYSOCHROMULINA SPECIES, METHODS AND MEDIA THEREFOR, AND PRODUCTS DERIVED THEREFROM” (UNIVERSITY OF WASHINGTON, priority 2008, published 2011).
